These results are taken from patent EP0252028A1 (priority 1986, dated 1988).

One series relates to Sarcina lutea ATCC 9341. Briefly: agar diffusion test, growth inhibition zones. Type of series: cell-based. A general note: Agar diffusion results depend on both activity and mobility in agar.
In a further series the test system is Candida albicans 1. Briefly: agar diffusion test, growth inhibition zones. Type of series: cell-based.
Series [1] has as its system Mycobacterium aurum NCTC 10437. Briefly: agar diffusion test, growth inhibition zones.
Protocol: The antitubercular activity was evaluated in in vitro tests against Mycobacterium aurum.
Series [2] deals with Staphylococcus aureus ATCC 9144. As to the kind of experiment: agar diffusion test, growth inhibition zones. It counts as cell-based.
A further series concerns Cryptococcus albidus. Briefly: agar diffusion test, growth inhibition zones. It counts as cell-based.
In series [3] the test system is Staphylococcus epidermis ATCC 14990. As to the kind of experiment: agar diffusion test, growth inhibition zones. It counts as cell-based.
Series [4] has as its system Salmonella tiphymurium ATCC 13311. Briefly: agar diffusion test, growth inhibition zones. It counts as cell-based.
The test system of the next series is Aspergillus fumigatus. As to the kind of experiment: agar diffusion test, growth inhibition zones. It counts as cell-based.
In series [5] the test system is Escherichia coli ATCC 10538. As to the kind of experiment: agar diffusion test, growth inhibition zones. It counts as cell-based.
Series [6] concerns Enterobacter aerogenes ATCC 13047. Briefly: agar diffusion test, growth inhibition zones. It counts as cell-based.
A further series relates to Candida albicans PCA6. As to the kind of experiment: agar diffusion test, growth inhibition zones. It counts as cell-based.
Series [7] relates to Bacillus subtilis ATCC 6051. As to the kind of experiment: agar diffusion test, growth inhibition zones. It counts as cell-based.
In the next series the test system is Candida parapsilosis. As to the kind of experiment: agar diffusion test, growth inhibition zones. Type of series: cell-based.
In series [8] the test system is Streptococcus faecalis ATCC 8043. As to the kind of experiment: agar diffusion test, growth inhibition zones. It counts as cell-based.
For a further series, the system named is Candida albicans 2. As to the kind of experiment: agar diffusion test, growth inhibition zones. It counts as cell-based.
Another series deals with Candida tropicalis. As to the kind of experiment: agar diffusion test, growth inhibition zones. It counts as cell-based.
A further series has as its system Aspergillus Flavus. As to the kind of experiment: agar diffusion test, growth inhibition zones. It counts as cell-based.
For a further series, the system named is Rodutorula rubra. Briefly: agar diffusion test, growth inhibition zones. Type of series: cell-based.
The next series has as its system Cryptococcus neoformans. Briefly: agar diffusion test, growth inhibition zones. Type of series: cell-based.
The subject of another series is Aspergillus Niger. Briefly: agar diffusion test, growth inhibition zones. Type of series: cell-based.
The nature of series [9]: acute toxicity (LD50) in mice. The following applies: mouse, in vivo, iv; CD1 mice. From the text: The nitrofurylbenzimidazoles (I) prepared via the process of the present invention are suitable for being compounded into topically administrable ointments and creams. […] Examples of typical formulations (suited for both topical application and systemic administration) are illustrated in the above-mentioned UK patents 1,072;735 and 1,094,903.

Another series concerns Torulopsis Candida. Briefly: agar diffusion test, growth inhibition zones. Type of series: cell-based.

In the case of `Cc1ccc2[nH]c(-c3ccc([N+](=O)[O-])o3)nc2c1` [Es. 2, 5-methyl-2-(5'-nitro-2'-furyl)-benzimidazole], the Growth inhibition zones was 12 mm with Sarcina lutea ATCC 9341; 18 mm with Candida albicans 1; 13 mm in series [1]; 30 mm in series [2]; 25 mm in the series with Cryptococcus albidus; 32 mm in series [3]. The Growth inhibition zones in series [4] came out at 12 mm; with Aspergillus fumigatus, 13 mm; in series [5], 13 mm; in series [6], 16 mm; in the series with Candida albicans PCA6, 32 mm; in [7], 30 mm. Also, the Growth inhibition zones in the series on Candida parapsilosis came out at 29 mm; in series [8], 23 mm; in the series with Candida albicans 2 it was 33 mm.
Turning to `O=[N+]([O-])c1ccc2[nH]c(-c3ccc([N+](=O)[O-])o3)nc2c1` [Es. 4, 5-nitro-2-(5'-nitro-2'-furyl)-benzimidazole], the Growth inhibition zones in the series with Sarcina lutea ATCC 9341 is on record as 12 mm; in series [1], 15 mm; in [2], 30 mm; in [3] it was 32 mm; in [4], 15 mm; in series [5], 15 mm. For the same molecule, the Growth inhibition zones in series [6] worked out at 14 mm; in series [7] it was 30 mm; in series [8], 20 mm.
`O=[N+]([O-])c1ccc(-c2nc3ccccc3[nH]2)o1` [Es. 1, 2-(5'-nitro-2'-furyl)-benzimidazole]: the Growth inhibition zones in the series with Sarcina lutea ATCC 9341 is reported as 15 mm; in the series on Candida albicans 1, 25 mm; in [1], 24 mm; in [2] it was 35 mm; in the series on Cryptococcus albidus it was 33 mm; in [3] it was 35 mm. In addition, the Growth inhibition zones in series [4] stood at 20 mm; in the series with Aspergillus fumigatus, 22 mm; in series [5] it was 22 mm; in series [6] it was 18 mm; with Candida albicans PCA6, 40 mm; in [7] it was 36 mm. Moreover, the Growth inhibition zones was found to be 37 mm with Candida parapsilosis, 24 mm in series [8] and 42 mm in the series on Candida albicans 2.
`O=[N+]([O-])c1ccc(-c2nc3cc(C(F)(F)F)ccc3[nH]2)o1` [Es. 5, 5-trifluoromethyl-2-(5'-nitro-2'-furyl)-benzimidazole]: the Growth inhibition zones in the series on Sarcina lutea ATCC 9341 is reported as 14 mm; in [1], 22 mm; in series [2] it was 30 mm; in series [3], 30 mm; in series [4] it was 13 mm; in series [5] it was 11 mm. Further, the Growth inhibition zones with Candida albicans PCA6 is recorded as 23 mm; in series [7], 26 mm; in the series with Candida parapsilosis, 20 mm; in [8], 21 mm; in the series with Candida albicans 2 it was 22 mm.
As for `O=[N+]([O-])c1ccc(-c2nc3cc(Cl)ccc3[nH]2)o1` [Es. 6, 5-chloro-2-(5'-nitro-2'-furyl)-benzimidazole], the Growth inhibition zones in the series with Candida albicans 1 amounted to 15 mm; in series [1], 13 mm; in series [2], 28 mm; in series [3], 30 mm; in series [4] it was 14 mm; in [5], 15 mm. Besides, the Growth inhibition zones was determined as 12 mm in [6]; 22 mm in the series with Candida albicans PCA6; 23 mm in [7]; 21 mm in the series on Candida parapsilosis; 22 mm in [8]; 22 mm with Candida albicans 2.
A word on the LD50: it is the dose at which mortality reaches 50%. On to `O=[N+]([O-])c1ccc(-c2nc3cc(F)ccc3[nH]2)o1` [Es. 3, 5-fluoro-2-(5'-nitro-2'-furyl)-benzimidazole], for which the Growth inhibition zones is 27 mm in the series on Sarcina lutea ATCC 9341; 34 mm with Candida albicans 1; 35 mm in series [1]; 28 mm in series [2]; 25 mm in the series with Candida tropicalis; 35 mm with Cryptococcus albidus. For the same molecule, the Growth inhibition zones is recorded as 29 mm in [3]; 23 mm in [4]; 30 mm in the series with Aspergillus Flavus; 35 mm in the series on Rodutorula rubra; 45 mm in the series on Cryptococcus neoformans; 30 mm in the series on Aspergillus fumigatus. Moreover, the Growth inhibition zones in the series on Aspergillus Niger came to 38 mm; in series [5], 21 mm; in the series with Candida albicans PCA6 it was 34 mm; in series [7], 27 mm; in the series with Candida parapsilosis it was 34 mm; in series [8], 33 mm. In addition, the Growth inhibition zones came to 34 mm in the series on Candida albicans 2 and 42 mm with Torulopsis Candida. In addition, the LD50 in series [9] worked out at 240 mg/kg.
